Data taken from PubChem BioAssay AID330 (DTP/NCI, 2004).
Where “and” joins values, the source holds several entries; their conditions need not be identical. Identical values can stand only once. Toxic doses and inconclusive results are not listed. The calls were made as follows: active = survival T/C of 150% or more; inactive = T/C below 125% in these data. Peptide text beside a SMILES is read from it.

Test system: P388 leukemia ip, CD2F1 mice, survival T/C
Assay: NCI In Vivo Anticancer Drug Screen. Data for tumor model P388 Leukemia (intraperitoneal) in CD2F1 (CDF1) mice
Details: endpoint: median survival time, higher = longer survival
Summary of the method: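 Mice carrying the transplanted tumor received test compound or vehicle. Survival was recorded in each group, and the value is the treated-group measurement divided by that of the vehicle-treated control group.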

[1] = dose: 50.0 mg/kg/injection, schedule: Q01DX005 (ip), vehicle: saline
[2] = dose: 100.0 mg/kg/injection, schedule: Q01DX005 (ip), vehicle: saline
[3] = dose: 200.0 mg/kg/injection, schedule: Q01DX005 (ip), vehicle: saline
[4] = dose: 12.5 mg/kg/injection, schedule: Q01DX005 (ip), vehicle: saline with Tween-80
[5] = dose: 25.0 mg/kg/injection, schedule: Q01DX005 (ip), vehicle: saline with Tween-80
[6] = dose: 50.0 mg/kg/injection, schedule: Q01DX005 (ip), vehicle: saline with Tween-80
[7] = dose: 100.0 mg/kg/injection, schedule: Q01DX005 (ip), vehicle: saline with Tween-80
[8] = dose: 120.0 mg/kg/injection, schedule: Q01DX005 (ip), vehicle: Klucel (hydroxypropylcellulose) (HPC)
[9] = dose: 50.0 mg/kg/injection, schedule: Q01DX005 (ip), vehicle: Klucel (hydroxypropylcellulose) (HPC)
[10] = dose: 100.0 mg/kg/injection, schedule: Q01DX005 (ip), vehicle: Klucel (hydroxypropylcellulose) (HPC)
[11] = dose: 60.0 mg/kg/injection, schedule: Q01DX005 (ip), vehicle: Klucel (hydroxypropylcellulose) (HPC)
[12] = dose: 240.0 mg/kg/injection, schedule: Q01DX005 (ip), vehicle: Klucel (hydroxypropylcellulose) (HPC)

Measured: T/C

O=c1c(O)cccn1C1OC(CO)C(O)C1O (stereo not drawn)
inactive: [1] 99 % of control and 97 % of control and 104 % of control | [2] 99 % of control and 101 % of control and 117 % of control | [3] 104 % of control [middle of 4 runs] | dose: 400.0 mg/kg/injection, schedule: Q01DX005 (ip), vehicle: saline 102 % of control and 112 % of control and 87 % of control

CC1=CC(O/C=C2\C(=O)OC3C=CCC23)OC1=O (stereo not drawn)
inactive: dose: 100.0 mg/kg/injection, schedule: Q04DX002 (ip), vehicle: suspension in saline 99 % of control | dose: 200.0 mg/kg/injection, schedule: Q04DX002 (ip), vehicle: suspension in saline 98 % of control | dose: 400.0 mg/kg/injection, schedule: Q04DX002 (ip), vehicle: suspension in saline 111 % of control

Nc1ccc2cc(S(=O)(=O)O)cc(O)c2c1N=Nc1ccc(NC(=O)c2ccc(C(=O)Nc3ccc(N=Nc4c(N)ccc5cc(S(=O)(=O)O)cc(O)c45)c(S(=O)(=O)O)c3)cc2)cc1S(=O)(=O)O
inactive: [4] 101 % of control | [5] 96 % of control | [6] 98 % of control

CN1CCCC(CN2c3ccccc3Sc3ccccc32)C1 (stereo not drawn)
inactive: [4] 100 % of control | [5] 102 % of control | [6] 104 % of control and 105 % of control | [7] 111 % of control

CN(C)c1ccc2c3c(c(=O)oc2c1)CCC3
inactive: dose: 3.12 mg/kg/injection, schedule: Q01DX009 (ip), vehicle: saline with Tween-80 102 % of control | dose: 6.25 mg/kg/injection, schedule: Q01DX009 (ip), vehicle: saline with Tween-80 112 % of control | dose: 12.5 mg/kg/injection, schedule: Q01DX009 (ip), vehicle: saline with Tween-80 114 % of control and 115 % of control | dose: 25.0 mg/kg/injection, schedule: Q01DX009 (ip), vehicle: saline with Tween-80 107 % of control | dose: 50.0 mg/kg/injection, schedule: Q01DX009 (ip), vehicle: saline with Tween-80 104 % of control and 111 % of control | dose: 200.0 mg/kg/injection, schedule: Q01DX009 (ip), vehicle: saline with Tween-80 94 % of control

COc1ccc(C2OC3=C(Nc4ccc(Cl)cc4N3)C2=O)c(OC)c1 (stereo not drawn)
inactive: dose: 0.94 mg/kg/injection, schedule: Q01DX005 (ip), vehicle: Klucel (hydroxypropylcellulose) (HPC) 99 % of control | dose: 1.88 mg/kg/injection, schedule: Q01DX005 (ip), vehicle: Klucel (hydroxypropylcellulose) (HPC) 91 % of control | dose: 3.75 mg/kg/injection, schedule: Q01DX005 (ip), vehicle: Klucel (hydroxypropylcellulose) (HPC) 95 % of control | dose: 15.0 mg/kg/injection, schedule: Q01DX005 (ip), vehicle: Klucel (hydroxypropylcellulose) (HPC) 91 % of control | dose: 30.0 mg/kg/injection, schedule: Q01DX005 (ip), vehicle: Klucel (hydroxypropylcellulose) (HPC) 92 % of control | [8] 90 % of control and 93 % of control

CC(=O)OCC1OC(c2ccccc2)C/C(=N/O)C1OC(C)=O (stereo not drawn)
inactive: [9] 96 % of control | [10] 93 % of control | dose: 200.0 mg/kg/injection, schedule: Q01DX005 (ip), vehicle: Klucel (hydroxypropylcellulose) (HPC) 94 % of control

C[N+](C)(C)CCC(=O)c1cccc([N+](=O)[O-])c1
inactive: dose: 12.5 mg/kg/injection, schedule: Q01DX009 (ip), vehicle: saline 101 % of control | dose: 25.0 mg/kg/injection, schedule: Q01DX009 (ip), vehicle: saline 97 % of control | dose: 50.0 mg/kg/injection, schedule: Q01DX009 (ip), vehicle: saline 108 % of control and 97 % of control

Cc1cc(C=C2C(=O)NC(=O)NC2=O)cc(C)c1O
inactive: [4] 108 % of control | [5] 103 % of control | [6] 105 % of control and 119 % of control | [7] 117 % of control

O=C(O)CC(Cc1ncnc2c1ncn2C1OC(CO)C(O)C1O)C(=O)O (stereo not drawn)
inactive: dose: 100.0 mg/kg/injection, schedule: Q04DX003 (ip), vehicle: saline 100 % of control | dose: 200.0 mg/kg/injection, schedule: Q04DX003 (ip), vehicle: saline 99 % of control | dose: 400.0 mg/kg/injection, schedule: Q04DX003 (ip), vehicle: saline 99 % of control

Cc1cc(C)c2cc(=O)oc-2c(C)c1
inactive: dose: 100.0 mg/kg/injection, schedule: Q01DX001 (ip), vehicle: Klucel (hydroxypropylcellulose) (HPC) 100 % of control | dose: 200.0 mg/kg/injection, schedule: Q01DX001 (ip), vehicle: Klucel (hydroxypropylcellulose) (HPC) 103 % of control | dose: 400.0 mg/kg/injection, schedule: Q01DX001 (ip), vehicle: Klucel (hydroxypropylcellulose) (HPC) 100 % of control

S=c1nc[nH]c2c1ncn2C1CCCO1 (stereo not drawn)
inactive: dose: 100.0 mg/kg/injection, schedule: Q04DX003 (ip), vehicle: saline with Tween-80 100 % of control | dose: 200.0 mg/kg/injection, schedule: Q04DX003 (ip), vehicle: saline with Tween-80 118 % of control

Cc1cc(Cl)nc(Cl)c1C#N
inactive: dose: 18.75 mg/kg/injection, schedule: Q04DX003 (ip), vehicle: saline 98 % of control | dose: 37.5 mg/kg/injection, schedule: Q04DX003 (ip), vehicle: saline 103 % of control | dose: 75.0 mg/kg/injection, schedule: Q04DX003 (ip), vehicle: saline 103 % of control | dose: 150.0 mg/kg/injection, schedule: Q04DX003 (ip), vehicle: saline 99 % of control

O=C1c2ccccc2C(C2c3ccccc3C(=O)c3cc(Br)ccc32)c2ccc(Br)cc21 (stereo not drawn)
inactive: dose: 12.5 mg/kg/injection, schedule: Q01DX005 (ip), vehicle: Klucel (hydroxypropylcellulose) (HPC) 88 % of control | dose: 25.0 mg/kg/injection, schedule: Q01DX005 (ip), vehicle: Klucel (hydroxypropylcellulose) (HPC) 97 % of control | [9] 90 % of control | [10] 86 % of control

CC(C)=CCCC(=O)Cc1nc2nnc(N)n2nc1CC(=O)CCC=C(C)C
inactive: dose: 60.0 mg/kg/injection, schedule: Q01DX005 (ip), vehicle: saline 100 % of control | dose: 120.0 mg/kg/injection, schedule: Q01DX005 (ip), vehicle: saline 98 % of control | dose: 240.0 mg/kg/injection, schedule: Q01DX005 (ip), vehicle: saline 104 % of control

CC(N)C(=O)NC(Cc1ccc(O)cc1)C(=O)NC(Cc1ccccc1)C(N)=O (stereo not drawn) (H-Ala-Tyr-Phe-NH2; configuration not given here)
inactive: [1] 102 % of control | [2] 101 % of control | [3] 101 % of control

COCc1c(C)oc2c(C)c3oc(=O)cc(C)c3cc12
inactive: dose: 100.0 mg/kg/injection, schedule: Q05DX002 (ip), vehicle: saline with Tween-80 101 % of control | dose: 200.0 mg/kg/injection, schedule: Q05DX002 (ip), vehicle: saline with Tween-80 95 % of control | dose: 400.0 mg/kg/injection, schedule: Q05DX002 (ip), vehicle: saline with Tween-80 107 % of control

COc1cc(C2c3cc4c(cc3OC3(O)C=C(C)OC(=O)C23)OCO4)cc(OC)c1OC (stereo not drawn)
inactive: [11] 94 % of control | [8] 94 % of control | [12] 110 % of control

CCN(CC)Cc1c(C)[nH]c2ccc3c(c2c1=O)Oc1ccccc1O3
inactive: dose: 100.0 mg/kg/injection, schedule: Q04DX002 (ip), vehicle: Klucel (hydroxypropylcellulose) (HPC) 100 % of control | dose: 200.0 mg/kg/injection, schedule: Q04DX002 (ip), vehicle: Klucel (hydroxypropylcellulose) (HPC) 100 % of control | dose: 400.0 mg/kg/injection, schedule: Q04DX002 (ip), vehicle: Klucel (hydroxypropylcellulose) (HPC) 100 % of control

CCOC(=O)/C(C#N)=C(\O)CCCC(=O)O
inactive: dose: 50.0 mg/kg/injection, schedule: Q01DX009 (ip), vehicle: Klucel (hydroxypropylcellulose) (HPC) 88 % of control | dose: 100.0 mg/kg/injection, schedule: Q01DX009 (ip), vehicle: Klucel (hydroxypropylcellulose) (HPC) 91 % of control | dose: 200.0 mg/kg/injection, schedule: Q01DX009 (ip), vehicle: Klucel (hydroxypropylcellulose) (HPC) 90 % of control

C/C(C=O)=C\c1ccc(N(C)C)cc1
inactive: [11] 101 % of control | [8] 101 % of control | [12] 100 % of control
